Literature values as cited in patent US12031126B2, “Methods and compositions for simultaneous editing of both strands of a target double-stranded nucleotide sequence” (The Broad Institute, Inc., priority 2020, dated 2024).

Tests used:
FKBP12 = FKBP12 (Homo sapiens, UniProt P62942); settings: cited from earlier work
FKBP12 F36V = FKBP12 F36V (Homo sapiens, UniProt P62942, F37V); settings: cited from earlier work
Chain of FKBP12 F36V (P62942 whole entry F37V): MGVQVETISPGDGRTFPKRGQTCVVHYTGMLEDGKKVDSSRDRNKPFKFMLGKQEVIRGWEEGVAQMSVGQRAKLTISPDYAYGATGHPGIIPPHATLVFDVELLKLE

Chain of FKBP12 (P62942 whole entry): as the sequence (P62942 whole entry F37V) above, with V37F counted along it

For CC[C@H](C(=O)N1CCCC[C@H]1C(=O)O[C@H](CCc1ccc(OC)c(OC)c1)c1cccc(OCC(=O)O)c1)c1cc(OC)c(OC)c(OC)c1 [AP1867], the Kd (FKBP12) is listed as 67 nM and the Kd (FKBP12 F36V) is listed as 0.094 nM.
